Our source for the IC50 values is ChEMBL document CHEMBL5729714, “Indazoles as hematopoietic progenitor kinase 1 (HPK1) inhibitors and methods using same” (2023).

This experiment has as its target Mitogen-activated protein kinase kinase kinase kinase 1 (Homo sapiens, UniProt Q92918). Put plainly: ADP-Glo kinase assay: HPK1 kinase activity was measured by Promega's ADP-Glo™ kinase assay. In this assay, 5 ng of recombinant human HPK1 (signalchem) is incubated with 5 μL of compounds (0.5% DMSO), 5 μL of MBP (0.5 μg/μl) and 5 μL of ATP (25 μM) in buffer (40 mM Tris, 7.5; 20 mM MgCl2; 0.1 mg/ml BSA; 5 μM DTT). The assay was started by incubating the reaction mixture in a 96-well plate at 30′ C for 40 minutes. After the incubation, 25 uL ADP-Glo reagent was added and the reaction was incubated at room temperature for 40-min to stop the reaction and degrade residual ATP. The ADP product was then converted to ATP by adding 50 uL per well of detection reagent. Luminescence was detected after 30-min room temperature incubation with the Molecular device I3X plate reader. The IC50 values were calculated from a series of percent inhibition values determined at a range of inhibitor concentration using software routines as implemented in the GraphPad Prism 7 software and SigmaPlot13.0.

Mitogen-activated protein kinase kinase kinase kinase 1, sequence (Q92918 whole entry): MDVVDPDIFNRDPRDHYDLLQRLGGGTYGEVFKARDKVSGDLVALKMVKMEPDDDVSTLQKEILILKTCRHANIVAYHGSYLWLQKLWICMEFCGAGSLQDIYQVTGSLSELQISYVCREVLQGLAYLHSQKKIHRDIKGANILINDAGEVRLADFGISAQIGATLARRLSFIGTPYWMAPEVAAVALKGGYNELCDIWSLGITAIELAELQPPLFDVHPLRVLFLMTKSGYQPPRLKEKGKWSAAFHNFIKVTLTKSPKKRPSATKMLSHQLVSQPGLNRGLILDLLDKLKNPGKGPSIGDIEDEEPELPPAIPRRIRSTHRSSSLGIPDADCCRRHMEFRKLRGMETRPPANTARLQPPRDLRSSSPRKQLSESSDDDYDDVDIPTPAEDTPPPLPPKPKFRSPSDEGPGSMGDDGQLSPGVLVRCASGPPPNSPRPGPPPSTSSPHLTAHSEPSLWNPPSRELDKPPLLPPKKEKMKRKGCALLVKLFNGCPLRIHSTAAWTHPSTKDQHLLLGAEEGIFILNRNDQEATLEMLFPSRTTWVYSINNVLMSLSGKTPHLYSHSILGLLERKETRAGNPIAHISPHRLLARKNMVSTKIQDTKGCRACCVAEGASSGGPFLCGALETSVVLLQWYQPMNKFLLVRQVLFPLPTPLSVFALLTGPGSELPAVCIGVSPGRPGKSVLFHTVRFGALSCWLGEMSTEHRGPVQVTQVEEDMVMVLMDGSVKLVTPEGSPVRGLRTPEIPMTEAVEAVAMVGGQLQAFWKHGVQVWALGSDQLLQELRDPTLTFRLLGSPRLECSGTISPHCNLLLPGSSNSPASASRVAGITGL

Turning to `O=C(Nc1nc2ccc(-c3c(Cl)c(F)c(N4CCCC4)c4[nH]ncc34)cc2s1)[C@@H]1C[C@@H]1F`, the IC50 – broadly, the concentration that gives 50% inhibition – was below 100 nM. `O=C(Nc1cn2cc(-c3c(Cl)c(F)c(C(F)C(F)(F)F)c4[nH]ncc34)ccc2n1)[C@@H]1C[C@@H]1F` (some centres undefined): the IC50 was below 100 nM. For `CCN(C)c1c(F)c(C)c(-c2ccc3nc(NC(=O)[C@@H]4C[C@@H]4F)cn3c2)c2cn[nH]c12` the value was below 100 nM. Consider `CCN(C)c1c(F)c(C)c(-c2ccc3nc(NC(=O)[C@@H]4C[C@@H]4F)sc3c2)c2cn[nH]c12`, for which the IC50 was below 100 nM.

As for `CCN(C)c1c(F)c(C)c(-c2ccc3nc(NC(=O)[C@@H]4C[C@@H]4F)sc3n2)c2cn[nH]c12`, the IC50 is below 100 nM.

`N#Cc1c(F)c(Cl)c(-c2ccc3nc(NC(=O)[C@@H]4C[C@@H]4F)sc3c2)c2cn[nH]c12`: the IC50 was below 100 nM. As to `CC(=O)N(C)c1c(F)c(C)c(-c2ccc3nc(NC(=O)[C@@H]4C[C@@H]4F)cn3c2)c2cn[nH]c12`, the IC50 is below 100 nM.

`CSCc1c(F)c(Cl)c(-c2ccc3nc(NC(=O)[C@@H]4C[C@@H]4F)cn3c2)c2cn[nH]c12`: the IC50 is below 100 nM. To `CCOC(c1c(F)c(Cl)c(-c2ccc3nc(NC(=O)[C@@H]4C[C@@H]4F)cn3c2)c2cn[nH]c12)C(F)(F)F` (some centres undefined) belongs below 100 nM; to `N#CCSc1c(F)c(Cl)c(-c2ccn3nc(NC(=O)[C@@H]4C[C@@H]4F)cc3c2)c2cn[nH]c12`, below 100 nM. For `O=C(Nc1cc2cc(-c3c(C(F)(F)F)c(F)cc4[nH]ncc34)ccn2n1)[C@@H]1C[C@@H]1F` the value was below 100 nM; for `Cc1c(F)c(S(C)(=O)=O)c2[nH]ncc2c1-c1ccc2nc(NC(=O)[C@@H]3C[C@@H]3F)sc2n1`, above 1000 nM.

With `CSc1c(F)c(C)c(-c2ccn3nc(NC(=O)[C@@H]4C[C@H]4F)cc3c2)c2cn[nH]c12`, the IC50 is below 100 nM.

In the case of `O=C(Nc1cn2cc(-c3c(Cl)c(F)c(NC4CCOC4)c4[nH]ncc34)ccc2n1)[C@@H]1C[C@@H]1F` (some centres undefined), the IC50 was below 100 nM. For `CC(c1c(F)c(Cl)c(-c2ccc3nc(NC(=O)[C@@H]4C[C@@H]4F)cn3c2)c2cn[nH]c12)n1ncnn1` (some centres undefined) the value was below 100 nM; for `C[S+]([O-])Cc1c(F)c(Cl)c(-c2ccc3nc(NC(=O)[C@@H]4C[C@@H]4F)cn3c2)c2cn[nH]c12` (some centres undefined), below 100 nM; for `CC(=O)N(C)c1c(F)c(C)c(-c2ccc3nc(NC(=O)[C@@H]4C[C@@H]4F)sc3n2)c2cn[nH]c12`, below 100 nM. For `CNC(=O)CSc1c(F)c(Cl)c(-c2ccc3nc(NC(=O)[C@@H]4C[C@@H]4F)sc3c2)c2cn[nH]c12`, the IC50 is below 100 nM. `C=Cc1c(F)cc2[nH]ncc2c1-c1ccc2nc(NC(=O)[C@@H]3C[C@@H]3F)sc2c1`: the IC50 was below 100 nM.

On to `CS(=O)(=O)Cc1c(F)c(Cl)c(-c2ccc3nc(NC(=O)[C@@H]4C[C@@H]4F)cn3c2)c2cn[nH]c12`, for which the IC50 is below 100 nM. `N#CC(NC=O)c1c(F)c(Cl)c(-c2ccc3nc(NC(=O)[C@@H]4C[C@@H]4F)cn3c2)c2cn[nH]c12` (some centres undefined): the IC50 is below 100 nM. To `CC(=O)N(C)c1c(F)c(C)c(-c2ccn3nc(NC(=O)[C@@H]4C[C@@H]4F)cc3c2)c2cn[nH]c12` belongs below 100 nM; to `O=C(Nc1cn2cc(-c3c(Br)c(F)cc4[nH]ncc34)ccc2n1)[C@@H]1C[C@@H]1F`, below 100 nM; to `O=C(Nc1cn2cc(-c3c(Cl)c(F)c(-c4cc[nH]c4)c4[nH]ncc34)ccc2n1)[C@@H]1C[C@@H]1F`, below 100 nM. Consider `O=C(Nc1cn2cc(-c3c(Cl)c(F)c(CO)c4[nH]ncc34)ccc2n1)[C@@H]1C[C@@H]1F`, for which the IC50 was below 100 nM. Consider `O=C(Nc1cc2cc(-c3c(Cl)c(F)c(CO)c4[nH]ncc34)ccn2n1)[C@@H]1C[C@@H]1F`, for which the IC50 is below 100 nM. To `CC(F)c1c(F)c(Cl)c(-c2ccc3nc(NC(=O)[C@@H]4C[C@@H]4F)cn3c2)c2cn[nH]c12` (some centres undefined) belongs below 100 nM; to `Cn1ccc(-c2c(F)c(Cl)c(-c3ccc4nc(NC(=O)[C@@H]5C[C@@H]5F)cn4c3)c3cn[nH]c23)c1`, below 100 nM; to `CCN(C)c1c(F)c(Cl)c(-c2ccc3nc(NC(=O)[C@@H]4C[C@@H]4F)sc3n2)c2cn[nH]c12`, below 100 nM.

Turning to `COC(C)c1c(F)c(Cl)c(-c2ccc3nc(NC(=O)[C@@H]4C[C@@H]4F)cn3c2)c2cn[nH]c12` (some centres undefined), the IC50 was below 100 nM. To `O=C(Nc1cc2cc(-c3c(Cl)c(F)c(C(O)C(F)(F)F)c4[nH]ncc34)ccn2n1)[C@@H]1C[C@@H]1F` (some centres undefined) belongs below 100 nM. Regarding `CC(O)c1c(F)c(Cl)c(-c2ccc3nc(NC(=O)[C@@H]4C[C@@H]4F)cn3c2)c2cn[nH]c12` (some centres undefined), the IC50 was below 100 nM. To `Cn1cccc1-c1c(F)c(Cl)c(-c2ccc3nc(NC(=O)[C@@H]4C[C@@H]4F)cn3c2)c2cn[nH]c12` belongs below 100 nM.

For `CC(Nc1c(F)c(Cl)c(-c2ccc3nc(NC(=O)[C@@H]4C[C@@H]4F)cn3c2)c2cn[nH]c12)C(=O)N(C)C` (some centres undefined), the IC50 was below 100 nM.

As to `COC(c1c(F)c(Cl)c(-c2ccc3nc(NC(=O)[C@@H]4C[C@@H]4F)cn3c2)c2cn[nH]c12)C(F)(F)F` (some centres undefined), the IC50 was below 100 nM. To `CSc1c(F)c(C)c(-c2ccc3nc(NC(=O)[C@@H]4C[C@@H]4F)sc3n2)c2cn[nH]c12` belongs below 100 nM; to `O=C(Nc1cn2cc(-c3c(Cl)c(F)c(NC4=NCCN4)c4[nH]ncc34)ccc2n1)[C@@H]1C[C@@H]1F`, below 100 nM; to `Cn1nccc1-c1c(F)c(Cl)c(-c2ccc3nc(NC(=O)[C@@H]4C[C@@H]4F)cn3c2)c2cn[nH]c12`, below 100 nM. In the case of `CSc1c(F)c(C)c(-c2ccn3nc(NC(=O)[C@H]4C[C@H]4F)cc3c2)c2cn[nH]c12`, the IC50 was below 100 nM. To `CSC(C)c1c(F)c(Cl)c(-c2ccc3nc(NC(=O)[C@@H]4C[C@@H]4F)cn3c2)c2cn[nH]c12` (some centres undefined) belongs below 100 nM. Consider `O=C(Nc1cn2cc(-c3c(Cl)c(F)c(CN4CCCC4)c4[nH]ncc34)ccc2n1)[C@@H]1C[C@@H]1F`, for which the IC50 was below 100 nM. For `CCc1c(F)c(SC(C)C#N)c2[nH]ncc2c1-c1ccn2nc(NC(=O)[C@@H]3C[C@@H]3F)cc2c1` (some centres undefined) the value was below 100 nM; for `CC(=O)Nc1c(F)c(C)c(-c2ccn3nc(NC(=O)[C@@H]4C[C@@H]4F)cc3c2)c2cn[nH]c12`, below 100 nM. For `Cn1ccnc1Sc1c(F)c(Cl)c(-c2ccc3nc(NC(=O)[C@@H]4C[C@@H]4F)cn3c2)c2cn[nH]c12` the value was below 100 nM. With `O=C(Nc1cn2cc(-c3c(Cl)c(F)c(C(O)C(F)(F)F)c4[nH]ncc34)ccc2n1)[C@@H]1C[C@@H]1F` (some centres undefined), the IC50 was below 100 nM.

As for `CSc1c(F)c(C)c(-c2ccn3nc(NC(=O)[C@H]4C[C@@H]4F)cc3c2)c2cn[nH]c12`, the IC50 was below 100 nM. For `CSc1c(F)c(C)c(-c2ccn3nc(NC(=O)C4CC4)cc3c2)c2cn[nH]c12` the value was below 100 nM; for `CSc1c(F)c(SC)c2[nH]ncc2c1-c1ccc2nc(NC(=O)[C@@H]3C[C@@H]3F)sc2c1`, below 100 nM. As to `Cc1c(F)c([S+](C)[O-])c2[nH]ncc2c1-c1ccn2nc(NC(=O)[C@@H]3C[C@@H]3F)cc2c1` (some centres undefined), the half-inhibitory concentration (IC50) was below 100 nM.
